ChEMBL document CHEMBL3877314, “Molecular docking, discovery, synthesis, and pharmacological properties of new 6-substituted-2-(3-phenoxyphenyl)-4-phenyl quinoline derivatives; an approach to developing potent DNA gyrase inhibitors/antibacterial agents” (Bioorg Med Chem, 2017)

Assays:
[1] = target: DNA gyrase subunit A (Staphylococcus aureus, UniProt P20831); test: Inhibition of Staphylococcus aureus DNA gyrase A expressed in Escherichia coli BL21(DE3) using relaxed pBR322 DNA as substrate incubated for 1 hr by bromophenol blue dye based agarose gel electrophoresis method
[2] = Growth inhibition of human MCF10 cells at 10 to 150 ug/ml after 24 hrs by MTT assay; format: cell-based; details: mcf10, 24 h
[3] = test system: Escherichia coli; test: Antibacterial activity against Escherichia coli MTCC 443 at 250 ug/ml after 24 hrs by agar well diffusion method; format: functional; details: MTCC 443, 24 h, read-out: IZ
[4] = test system: Pseudomonas aeruginosa; test: Antibacterial activity against Pseudomonas aeruginosa MTCC 424 at 250 ug/ml after 24 hrs by agar well diffusion method; format: functional; details: MTCC 424, 24 h, read-out: IZ
[5] = Growth inhibition of human G361 cells at 10 to 150 ug/ml after 24 hrs by MTT assay relative to control; format: functional, G-361
[6] = Growth inhibition of human MCF7 cells at 10 to 150 ug/ml after 24 hrs by MTT assay relative to control; format: functional
[7] = test system: Streptococcus pyogenes; test: Antibacterial activity against Streptococcus pyogenes MTCC 442 at 250 ug/ml after 24 hrs by agar well diffusion method; format: functional; details: MTCC 442, 24 h, read-out: IZ
[8] = Growth inhibition of human G361 cells after 24 hrs by MTT assay; format: functional, cell-based; details: G-361, 24 h
[9] = Growth inhibition of human MCF7 cells after 24 hrs by MTT assay; format: functional, cell-based; details: MCF7, 24 h
[10] = test system: Staphylococcus aureus; test: Antibacterial activity against Staphylococcus aureus MTCC 96 at 250 ug/ml after 24 hrs by agar well diffusion method; format: functional; details: MTCC 96, 24 h, read-out: IZ

Chain of DNA gyrase subunit A (P20831 whole entry): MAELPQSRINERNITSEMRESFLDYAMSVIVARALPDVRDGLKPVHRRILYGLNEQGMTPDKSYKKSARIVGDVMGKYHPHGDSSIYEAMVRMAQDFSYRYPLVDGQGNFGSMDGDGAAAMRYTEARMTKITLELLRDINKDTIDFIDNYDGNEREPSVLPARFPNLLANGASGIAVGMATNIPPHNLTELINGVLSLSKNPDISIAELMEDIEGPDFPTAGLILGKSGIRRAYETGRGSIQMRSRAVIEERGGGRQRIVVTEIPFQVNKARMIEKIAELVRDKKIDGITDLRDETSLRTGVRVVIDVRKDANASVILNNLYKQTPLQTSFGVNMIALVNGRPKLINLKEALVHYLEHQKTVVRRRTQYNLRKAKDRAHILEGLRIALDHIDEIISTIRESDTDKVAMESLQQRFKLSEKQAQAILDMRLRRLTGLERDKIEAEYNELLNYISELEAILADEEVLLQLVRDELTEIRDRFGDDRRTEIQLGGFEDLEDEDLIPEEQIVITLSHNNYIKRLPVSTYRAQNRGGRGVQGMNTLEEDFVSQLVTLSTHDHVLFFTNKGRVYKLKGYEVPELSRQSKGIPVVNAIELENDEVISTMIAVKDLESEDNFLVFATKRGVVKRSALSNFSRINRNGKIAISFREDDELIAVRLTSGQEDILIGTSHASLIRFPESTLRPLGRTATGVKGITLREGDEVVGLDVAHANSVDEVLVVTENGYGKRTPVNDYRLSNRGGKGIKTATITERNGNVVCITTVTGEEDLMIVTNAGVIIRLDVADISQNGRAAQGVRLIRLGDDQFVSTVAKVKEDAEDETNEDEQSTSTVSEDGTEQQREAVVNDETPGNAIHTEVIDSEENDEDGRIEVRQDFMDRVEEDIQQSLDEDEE

Row | Compound | IC50 [1] [nM] | growth inhibition (GI) [2] | zone of inhibition at 250 µg/mL [3] [mm] | zone of inhibition at 250 µg/mL [4] [mm] | growth inhibition (GI) [5] [%] | growth inhibition (GI) [6] [%] | zone of inhibition at 250 µg/mL [7] [mm] | IC50 [8] [nM] | IC50 [9] [nM] | zone of inhibition at 250 µg/mL [10] [mm]
1 | COc1ccc2nc(-c3cccc(Oc4ccccc4)c3)cc(-c3ccccc3)c2c1 | 530 to 11500 | Non-Toxic | 21.4 | 10.8 | 59.27 | 74.49 | 22.7 | 2020 | 548 | 29.6
2 | Clc1ccc2nc(-c3cccc(Oc4ccccc4)c3)cc(-c3ccccc3)c2c1 | 525 to 11300 | Non-Toxic | 18.1 | 6.89 | 30.45 | 32.14 | 20.2 | 12000 | 11000 | 21.6
3 | Oc1c(Cl)cc2nc(-c3cccc(Oc4ccccc4)c3)cc(-c3ccccc3)c2c1Cl | 467 | Non-Toxic | 26 | 21.3 | 60.34 | 73.17 | 29.2 | 2000 | 702 | 38.5
4 | Fc1ccc2nc(-c3cccc(Oc4ccccc4)c3)cc(-c3ccccc3)c2c1 | 912 to 994 | Non-Toxic | 18.3 | 10.4 | 46.24 | 60.25 | 18.5 | 3850 | 1680 | 29.9
5 | Oc1ccc2nc(-c3cccc(Oc4ccccc4)c3)cc(-c3ccccc3)c2c1 | 842 to 1070 | Non-Toxic | 26.5 | 16.5 | 58.46 | 72.56 | 29.8 | 2070 | 694 | 34.6
6 | Brc1ccc2nc(-c3cccc(Oc4ccccc4)c3)cc(-c3ccccc3)c2c1 | 473 to 10200 | Non-Toxic | 16.4 | 9.79 | 28.89 | 30.81 | 22.4 | 14600 | 11100 | 22.5
7 | Cc1cc2nc(-c3cccc(Oc4ccccc4)c3)cc(-c3ccccc3)c2cc1C | 533 to 11500 | Non-Toxic | 22.5 | 11.4 | 38.18 | 48.34 | 22.5 | 5840 | 3410 | 27.5
8 | N#Cc1ccc2nc(-c3cccc(Oc4ccccc4)c3)cc(-c3ccccc3)c2c1 | 537 to 11600 | Non-Toxic | 16.5 | 12.7 | 54.38 | 70.64 | 21.2 | 2150 | 822 | 26.5
9 | CO[C@@H]1[C@@H](OC(=O)c2ccc(C)[nH]2)[C@@H](O)[C@H](Oc2ccc3c(O)c(NC(=O)c4ccc(O)c(CC=C(C)C)c4)c(=O)oc3c2Cl)OC1(C)C [CHLOROBIOCIN] | 930 |  |  |  |  |  |  |  |  | 
10 | O=C(O)c1cn(C2CC2)c2cc(N3CCNCC3)c(F)cc2c1=O [CIPROFLOXACIN] |  |  | 21 to 26.7 | 21 to 23.8 |  |  | 18 to 24.4 |  |  | 21 to 26.4
11 | COc1cccc2c1C(=O)c1c(O)c3c(c(O)c1C2=O)C[C@@](O)(C(=O)CO)C[C@@H]3O[C@H]1C[C@H](N)[C@H](O)[C@H](C)O1 [DOXORUBICIN] |  |  |  |  |  | 71.56 |  |  | 812 to 1200 | 
